Tested on: yeast genes (expressed mRNA)
Test: DNA chip measurement of expressed mRNA of yeast genes after culture with a toxic chemical substance
Type: cell-based, Saccharomyces cerevisiae S288C
Details: for level of expressed mRNA in the presence of chemical substance / level in the absence of chemical substance: cultured two hours with the chemical substance; for The level of expressed mRNA in the presence of chemical substance/The level of expressed mRNA in the absence of chemical substance: cultured two hours with substance
Procedure: Yeast (Saccharomyces cerevisiae S288C (a SUC2mal mel gap2 CUP1)) were cultured at 25° C. on YPD medium (yeast extract 1%, polypeptone 2%, glucose 2%). One of toxic chemical substances was added to the cell at logarithmic growth phase, and the cell was further cultured for two hours. Cell was cultured without any chemical substance in the same condition, and was used as a control. Concentrations of the chemical substances were defined to inhibit the growth of the yeast but not lead to death.
After the completion of cultivation, the culture was centrifuged to collect the cells. To the cells, sodium acetate buffer (50 mM sodium acetate, 10 mM EDTA, 1% SDS) was added, and the mixture was shaken at 65° C. for five minutes, followed by returning to room temperature, and obtaining the supernatant, which procedure was repeated two times. To the supernatant, ½ amount of a solution of phenol/chloroform (1:1) was added, and the mixture was centrifuged to give a supernatant, an equal amount of chloroform was added, and the mixture was centrifuged to give a supernatant. To the supernatant, an equal amount of isopropanol containing 0.3 M sodium acetate was added, and the mixture was allowed to stand at room temperature for 30 minutes, after which the mixture was centrifuged to give sediment of the whole RNAs. Seventy % ethanol was added to the sediment, and the mixture was again centrifuged to give sediment, which was then dried and dissolved in water. mRNA was isolated from the whole RNAs as followings. In view of the fact that a poly A chain is attached to the 3′ terminus of mRNA, a polynucleotide having a poly T structure which was immobilized on the surface of latex beads was used to trap the mRNA, and then the mRNA was washed and eluted with spine column (Oligotex-dT30<Super>mRNA Purification Kit, Takara). Reverse transcription of the mRNA was conducted with a reverse transcriptase (Super Script II Reverse Transcriptase; catalogue No. 18064-014, GibcoBRL) using fluorescence-labeled nucleotides to give cDNAs that were introduced with Cy3-dUTP or Cy5-dUTP during the reverse transcription.
The labeled cDNAs were dissolved in TE buffer (10 mM Tris-HCl/1 mM EDTA, pH 8.0), and the solution was dropped on the DNA chip containing the whole genes of yeast (DNA Chip Research Inc. Japan) so that the cDNAs were hybridized on the DNA chip at 65° C. for over 12 hours. The fluoresces intensity of the DNA chip was read with a scanner, and the ratio relative to the fluorescence intensity resulting from the absence of chemical substance was estimated as the following, which is shown in Tables 1 to 9.
In the Tables, “Intensity” indicated in the rightmost column is a value of the level of expressed mRNA of each gene in control cells as divided by the average level of the expressions of the whole genes. A gene of which mRNA level is lower in control, and is higher in cases of addition of chemical substance, is especially useful in the detection of toxic substances.
Here, when a ratio of an amount of mRNA expressed in the presence of the chemical substance to an amount of mRNA expressed in the absence of the chemical substance is two or more, then it is considered significant.

## [Cl][Cd][Cl] [(2), CdCl2]
Yeast gene YJL097W
  level of expressed mRNA in the presence of chemical substance / level in the absence of chemical substance: 1.1
Yeast gene YJL151C
  The level of expressed mRNA in the presence of chemical substance/The level of expressed mRNA in the absence of chemical substance: 2.4
Yeast gene YJL152W
  The level of expressed mRNA in the presence of chemical substance/The level of expressed mRNA in the absence of chemical substance: 1.5
Yeast gene YJL161W
  The level of expressed mRNA in the presence of chemical substance/The level of expressed mRNA in the absence of chemical substance: 2.2
Yeast gene YJL171C
  The level of expressed mRNA in the presence of chemical substance/The level of expressed mRNA in the absence of chemical substance: 0.7
Yeast gene YJR008W
  The level of expressed mRNA in the presence of chemical substance/The level of expressed mRNA in the absence of chemical substance: 1.5
Yeast gene YJR030C
  level of expressed mRNA in the presence of chemical substance / level in the absence of chemical substance: 4.4
Yeast gene YJR054W
  The level of expressed mRNA in the presence of chemical substance/The level of expressed mRNA in the absence of chemical substance: 0.9
Yeast gene YKL051W
  level of expressed mRNA in the presence of chemical substance / level in the absence of chemical substance: 1.1
Yeast gene YKL071W
  The level of expressed mRNA in the presence of chemical substance/The level of expressed mRNA in the absence of chemical substance: 3.8
Yeast gene YKL086W
  The level of expressed mRNA in the presence of chemical substance/The level of expressed mRNA in the absence of chemical substance: 1.1
Yeast gene YKL097C
  level of expressed mRNA in the presence of chemical substance / level in the absence of chemical substance: 1.6
Yeast gene YKL100C
  level of expressed mRNA in the presence of chemical substance / level in the absence of chemical substance: 1.1
Yeast gene YKL151C
  The level of expressed mRNA in the presence of chemical substance/The level of expressed mRNA in the absence of chemical substance: 3.1
Yeast gene YKL153W
  The level of expressed mRNA in the presence of chemical substance/The level of expressed mRNA in the absence of chemical substance: 1.4
Yeast gene YKL195W
  The level of expressed mRNA in the presence of chemical substance/The level of expressed mRNA in the absence of chemical substance: 0.5
Yeast gene YKR040C
  level of expressed mRNA in the presence of chemical substance / level in the absence of chemical substance: 3.7
Yeast gene YKR091W
  The level of expressed mRNA in the presence of chemical substance/The level of expressed mRNA in the absence of chemical substance: 2.3
Yeast gene YLR054C
  The level of expressed mRNA in the presence of chemical substance/The level of expressed mRNA in the absence of chemical substance: 1.5
Yeast gene YLR149C
  The level of expressed mRNA in the presence of chemical substance/The level of expressed mRNA in the absence of chemical substance: 1.9
Yeast gene YLR152C
  The level of expressed mRNA in the presence of chemical substance/The level of expressed mRNA in the absence of chemical substance: 1.3
Yeast gene YLR194C
  The level of expressed mRNA in the presence of chemical substance/The level of expressed mRNA in the absence of chemical substance: 2.2
Yeast gene YLR226W
  level of expressed mRNA in the presence of chemical substance / level in the absence of chemical substance: 1.8
Yeast gene YLR324W
  The level of expressed mRNA in the presence of chemical substance/The level of expressed mRNA in the absence of chemical substance: 1.2
Yeast gene YLR338W
  level of expressed mRNA in the presence of chemical substance / level in the absence of chemical substance: 1.6
Yeast gene YLR350W
  The level of expressed mRNA in the presence of chemical substance/The level of expressed mRNA in the absence of chemical substance: 1.9
Yeast gene YLR387C
  The level of expressed mRNA in the presence of chemical substance/The level of expressed mRNA in the absence of chemical substance: 1.6
Yeast gene YLR392C
  level of expressed mRNA in the presence of chemical substance / level in the absence of chemical substance: 0.9
Yeast gene YLR415C
  level of expressed mRNA in the presence of chemical substance / level in the absence of chemical substance: 2.4
Yeast gene YLR427W
  level of expressed mRNA in the presence of chemical substance / level in the absence of chemical substance: 1.0
Yeast gene YLR460C
  The level of expressed mRNA in the presence of chemical substance/The level of expressed mRNA in the absence of chemical substance: 2.1
Yeast gene YML013W
  level of expressed mRNA in the presence of chemical substance / level in the absence of chemical substance: 1.0
Yeast gene YML029W
  level of expressed mRNA in the presence of chemical substance / level in the absence of chemical substance: 1.5
Yeast gene YML041C
  level of expressed mRNA in the presence of chemical substance / level in the absence of chemical substance: 1.0
Yeast gene YML079W
  level of expressed mRNA in the presence of chemical substance / level in the absence of chemical substance: 1.7
Yeast gene YML117W
  The level of expressed mRNA in the presence of chemical substance/The level of expressed mRNA in the absence of chemical substance: 2.2
Yeast gene YMR009W
  The level of expressed mRNA in the presence of chemical substance/The level of expressed mRNA in the absence of chemical substance: 1.9
Yeast gene YMR067C
  The level of expressed mRNA in the presence of chemical substance/The level of expressed mRNA in the absence of chemical substance: 0.9
Yeast gene YMR068W
  level of expressed mRNA in the presence of chemical substance / level in the absence of chemical substance: 0.7
Yeast gene YMR071C
  level of expressed mRNA in the presence of chemical substance / level in the absence of chemical substance: 2.0
Yeast gene YMR090W
  The level of expressed mRNA in the presence of chemical substance/The level of expressed mRNA in the absence of chemical substance: 9.5
Yeast gene YMR095C
  The level of expressed mRNA in the presence of chemical substance/The level of expressed mRNA in the absence of chemical substance: 2.0
Yeast gene YMR097C
  The level of expressed mRNA in the presence of chemical substance/The level of expressed mRNA in the absence of chemical substance: 1.0
Yeast gene YMR102C
  The level of expressed mRNA in the presence of chemical substance/The level of expressed mRNA in the absence of chemical substance: 2.9
Yeast gene YMR107W
  The level of expressed mRNA in the presence of chemical substance/The level of expressed mRNA in the absence of chemical substance: 3.9
Yeast gene YMR160W
  level of expressed mRNA in the presence of chemical substance / level in the absence of chemical substance: 1.3
Yeast gene YMR180C
  The level of expressed mRNA in the presence of chemical substance/The level of expressed mRNA in the absence of chemical substance: 0.9
Yeast gene YMR184W
  The level of expressed mRNA in the presence of chemical substance/The level of expressed mRNA in the absence of chemical substance: 5.4
Yeast gene YMR191W
  The level of expressed mRNA in the presence of chemical substance/The level of expressed mRNA in the absence of chemical substance: 2.4
Yeast gene YMR295C
  The level of expressed mRNA in the presence of chemical substance/The level of expressed mRNA in the absence of chemical substance: 1.0
Yeast gene YMR316W
  The level of expressed mRNA in the presence of chemical substance/The level of expressed mRNA in the absence of chemical substance: 2.9
Yeast gene YNL026W
  level of expressed mRNA in the presence of chemical substance / level in the absence of chemical substance: 1.0
Yeast gene YNL044W
  The level of expressed mRNA in the presence of chemical substance/The level of expressed mRNA in the absence of chemical substance: 0.9
